From publication PMC5622936, “Novel Carbonyl Analogs of Tamoxifen: Design, Synthesis, and Biological Evaluation” (Frontiers in Chemistry, 2017)

Columns and labels:
ERβ = biological target: T1, ERβ (Homo sapiens, UniProt Q92731); assay: fluorescence polarization competition, displacement of fluorescent estrogen ES2 (Beacon […]); type: binding; details: 1 nM ES2 tracer, relative to estradiol = 100
T1 construct: gene ESR2; isolated recombinant human ERβ (Invitrogen)

ERα = biological target: T2, ERα (Homo sapiens, UniProt P03372); assay: as above; type: binding; details: 1 nM ES2 tracer, relative to estradiol = 100
T2 construct: gene ESR1; isolated recombinant human ERα (Invitrogen)
T2 sequence (P03372 1-595): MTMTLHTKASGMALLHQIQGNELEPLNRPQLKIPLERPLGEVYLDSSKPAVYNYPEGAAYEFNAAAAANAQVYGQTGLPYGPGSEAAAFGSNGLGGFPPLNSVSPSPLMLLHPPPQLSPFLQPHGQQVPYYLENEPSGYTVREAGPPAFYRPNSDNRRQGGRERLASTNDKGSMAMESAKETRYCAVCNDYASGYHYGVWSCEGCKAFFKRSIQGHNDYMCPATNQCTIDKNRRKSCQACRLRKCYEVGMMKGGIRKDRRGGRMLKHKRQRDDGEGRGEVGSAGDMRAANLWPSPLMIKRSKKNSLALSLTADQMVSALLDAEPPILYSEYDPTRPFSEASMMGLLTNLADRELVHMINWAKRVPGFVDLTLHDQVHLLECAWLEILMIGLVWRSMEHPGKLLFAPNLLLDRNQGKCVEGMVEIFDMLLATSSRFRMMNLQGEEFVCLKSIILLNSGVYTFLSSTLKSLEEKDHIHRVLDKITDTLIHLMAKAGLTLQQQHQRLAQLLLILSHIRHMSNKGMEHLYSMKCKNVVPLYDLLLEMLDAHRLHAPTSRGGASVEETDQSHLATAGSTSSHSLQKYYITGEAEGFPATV

T1 sequence (Q92731 whole entry): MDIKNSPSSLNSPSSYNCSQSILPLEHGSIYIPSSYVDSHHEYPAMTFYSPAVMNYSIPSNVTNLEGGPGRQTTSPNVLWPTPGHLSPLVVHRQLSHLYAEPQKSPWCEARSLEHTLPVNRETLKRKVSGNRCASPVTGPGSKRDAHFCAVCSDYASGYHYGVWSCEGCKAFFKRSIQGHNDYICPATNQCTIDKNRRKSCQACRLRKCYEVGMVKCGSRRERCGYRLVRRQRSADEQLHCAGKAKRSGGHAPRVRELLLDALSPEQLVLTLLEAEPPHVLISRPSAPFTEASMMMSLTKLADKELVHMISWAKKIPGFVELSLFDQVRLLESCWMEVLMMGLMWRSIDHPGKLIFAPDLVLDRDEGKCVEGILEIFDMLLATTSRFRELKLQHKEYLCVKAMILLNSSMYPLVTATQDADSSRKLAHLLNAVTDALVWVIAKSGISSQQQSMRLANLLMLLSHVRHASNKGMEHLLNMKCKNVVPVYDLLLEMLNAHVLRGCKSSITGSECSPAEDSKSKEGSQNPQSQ

RBAβ^a (ERβ; E/Z isomer tested not stated) | RBAα^a (ERα; E/Z isomer tested not stated) | RBAβ^a (ERβ) | RBAα^a (ERα) | SMILES
16.3 ± 3.9 | 12.2 ± 2.3 | – | – | CCC(=C(c1ccc(O)cc1)c1ccc(C(=O)O)cc1)c1ccc(O)cc1 (mixture of isomers) [compound 10, 4-[1,2-bis-(4-hydroxy-phenyl)-but-1-enyl]-benzoic acid]
– | – | 62.14 ± 4.3 | 120.08 ± 8.5 | CC/C(=C(\c1ccc(O)cc1)c1ccc(OC(=O)CCl)cc1)c1ccc(O)cc1 [6a, Z-Chloro-acetic acid 4-[1,2 bis-(4-hydroxy-phenyl)-but-1-enyl]-phenyl ester]
– | – | 82.39 ± 4.9 | 96.37 ± 7.2 | CC/C(=C(\c1ccc(O)cc1)c1ccc(OC(=O)CBr)cc1)c1ccc(O)cc1 [6b, Z-Bromo-acetic acid 4-[1,2 bis-(4-hydroxy-phenyl)-but-1-enyl]-phenyl ester]
– | – | 72.72 ± 2.1 | 101.35 ± 10.2 | CC/C(=C(\c1ccc(O)cc1)c1ccc(OC(=O)CN(C)C)cc1)c1ccc(O)cc1 [8a, Z-Dimethylamino-acetic acid 4-[1,2-bis-(4-hydroxy-phenyl)-but-1-enyl]-phenyl ester]
– | – | 77.37 ± 4.5 | 108.12 ± 11.9 | CC/C(=C(\c1ccc(O)cc1)c1ccc(OC(=O)CN(CC)CC)cc1)c1ccc(O)cc1 [8b, Z-Diethylamino-acetic acid 4-[1,2-bis-(4-hydroxy-phenyl)-but-1-enyl]-phenyl ester]
– | – | 16.79 ± 1.4 | 8.06 ± 0.9 | CC/C(=C(\c1ccc(O)cc1)c1ccc(OC(=O)CN2CCOCC2)cc1)c1ccc(O)cc1 [8c, Z-Morpholin-4-yl-acetic acid 4-[1,2-bis-(4-hydroxy-phenyl)-but-1-enyl]-phenyl ester]
– | – | 6.15 ± 0.6 | 7.94 ± 0.6 | CC/C(=C(\c1ccc(O)cc1)c1ccc(C(=O)NCCCBr)cc1)c1ccc(O)cc1 [compound 14, (E)-4-[1,2-bis-(4-hydroxy-phenyl)-but-1-enyl]-n-(3-bromo-propyl)-benzamide]

SMILES | RBAβ^a (ERβ; E/Z isomer tested not stated) | RBAα^a (ERα; E/Z isomer tested not stated) | RBAβ^a (ERβ) | RBAα^a (ERα)
CC/C(=C(\c1ccc(O)cc1)c1ccc(C(=O)NCCBr)cc1)c1ccc(O)cc1 [compound 13, (E)-4-[1,2-bis-(4-hydroxy-phenyl)-but-1-enyl]-n-(2-bromo-ethyl)-benzamide] | – | – | 8.40 ± 2.5 | 17.4 ± 3.0
